Source: US12005044B1, “Treatment of autism spectrum disorders with ergothioneine, selenoneine, or combinations thereof” (Autism Therapeutics Inc., priority 2022, dated 2024)

Tests used:
[1] = EFSA Panel; cited from earlier work
ASD individuals = test: CARS-2 scoring of ASD individuals before and after three months of ET dietary supplement; format: in vivo, human; parameters: key to CARS-2 Total scores, After treatment / average of total CARS-2 score after treatment: sum of 15 items, 15 (normal) to 60; ≥30 = ASD
Text: Examples are described below for using ET to treat ASD-affected individuals. Each of the four individuals identified in the examples has various severity of ASD. The examples set forth herein are directed to the use of ET dietary supplement for a period of three months.
The examples below therefore adopted the CARS-2 system to evaluate ET treatment effects in four ASD individuals.
To obtain a CARS-2 score, each individual is rated on a scale of 1 (normal) to 4 (severely abnormal) with respect to each of the 15 criteria (“relationship to others”, “imitation”, “emotional response”, “body use”, “object use”, “adaptation to change”, “visual response”, “listening response”, “taste-smell-touch responses”, “fear and nervousness”, “verbal communication”, “non-verbal communication”, “activity level”, “level and reliability of intellectual responses”, and “general impressions”). A total score is obtained by combining all of 15 separate scores, ranging from 15 to 60. A score of 15 is normal. Scores below 30 are considered very mild or non-autistic; 30-36.5 are considered mild to moderate ASD and scores greater than 36.5 are considered severe ASD. The scoring can be provided by either primary care giver or the parents.
Method of treatment: ET (2 mg/kg bw per day, 54 mg daily) powder is dissolved in drinking water (200 mL). The individual is treated by ET for three months. ET has no color, no taste when dissolved in water.
Method of treatment: ET (2 mg/kg bw per day, 42 mg daily) powder is dissolved in drinking water (200 mL). The individual is treated by ET for three months.
Method of treatment: ET (1 mg/kg bw per day, 74 mg daily) powder is dissolved in drinking water (200 mL). The individual is treated by ET for three months.

[2] = Example 1, child, ET 2 mg/kg bw per day, three months, before treatment 1.5
[3] = Example 1, child, ET 2 mg/kg bw per day, three months, before treatment 2
[4] = Example 1, child, ET 2 mg/kg bw per day, three months, before treatment 2.5
[5] = Example 1, child, ET 2 mg/kg bw per day, three months, before treatment 3
[6] = Example 2, child, ET 2 mg/kg bw per day, three months, before treatment 1
[7] = Example 2, child, ET 2 mg/kg bw per day, three months, before treatment 2
[8] = Example 2, child, ET 2 mg/kg bw per day, three months, before treatment 3
[9] = Example 3, child (ASD, Asperger's Syndrome), ET 2 mg/kg bw per day, three months, before treatment 1
[10] = Example 3, child (ASD, Asperger's Syndrome), ET 2 mg/kg bw per day, three months, before treatment 1.5
[11] = Example 3, child (ASD, Asperger's Syndrome), ET 2 mg/kg bw per day, three months, before treatment 2.5
[12] = Example 4, person, ET 1 mg/kg bw per day, three months, before treatment 1
[13] = Example 4, person, ET 1 mg/kg bw per day, three months, before treatment 2
[14] = Example 4, person, ET 1 mg/kg bw per day, three months, before treatment 3
[15] = Example 4, person, ET 1 mg/kg bw per day, three months, before treatment 4

C[N+](C)(C)[C@@H](Cc1c[nH]c(=S)[nH]1)C(=O)O [ET, ergothioneine]
28.5: CARS-2 Total scores, After treatment (ASD individuals; Example 1, child, ET 2 mg/kg bw per day, three months, before treatment 33)
800 mg/kg bw per day: maximum allowed ET dosage based on the no-observed-adverse-effect level (NOAEL) [1]
1: CARS-2 Fear and nervousness, After treatment (ASD individuals; [3]) | CARS-2 Fear and nervousness, After treatment (ASD individuals; [6]) | CARS-2 Taste-smell-touch responses, After treatment (ASD individuals; [6]) | CARS-2 Listening response, After treatment (ASD individuals; [7]) | CARS-2 Adaptation to change, After treatment (ASD individuals; [9]) | CARS-2 Body use, After treatment (ASD individuals; [9]) | CARS-2 Emotional response, After treatment (ASD individuals; [9]) | CARS-2 Level and consistency of intellectual response, After treatment (ASD individuals; [9]) | CARS-2 Listening response, After treatment (ASD individuals; [9]) | CARS-2 Non-verbal communication, After treatment (ASD individuals; [9]) | CARS-2 Object use, After treatment (ASD individuals; [9]) | CARS-2 Taste-smell-touch responses, After treatment (ASD individuals; [9]) | CARS-2 Verbal communication, After treatment (ASD individuals; [9]) | CARS-2 Fear and nervousness, After treatment (ASD individuals; [10]) | CARS-2 Visual response, After treatment (ASD individuals; [10]) | CARS-2 Relationship to others, After treatment (ASD individuals; Example 3, child (ASD, Asperger's Syndrome), ET 2 mg/kg bw per day, three months, before treatment 2) | CARS-2 Adaptation to change, After treatment (ASD individuals; [12]) | CARS-2 Body use, After treatment (ASD individuals; [12]) | CARS-2 Emotional response, After treatment (ASD individuals; [12]) | CARS-2 Fear and nervousness, After treatment (ASD individuals; [13])
1.5: CARS-2 Activity level, After treatment (ASD individuals; [2]) | CARS-2 Adaptation to change, After treatment (ASD individuals; [2]) | CARS-2 Body use, After treatment (ASD individuals; [2]) | CARS-2 General impressions, After treatment (ASD individuals; [7]) | CARS-2 General impressions, After treatment (ASD individuals; [10])
2: CARS-2 Imitation, After treatment (ASD individuals; [3]) | CARS-2 Listening response, After treatment (ASD individuals; [3]) | CARS-2 Non-verbal communication, After treatment (ASD individuals; [3]) | CARS-2 Object use, After treatment (ASD individuals; [3]) | CARS-2 Taste-smell-touch responses, After treatment (ASD individuals; [3]) | CARS-2 Emotional response, After treatment (ASD individuals; [4]) | CARS-2 Relationship to others, After treatment (ASD individuals; [4]) | CARS-2 Level and consistency of intellectual response, After treatment (ASD individuals; [5]) | CARS-2 Verbal communication, After treatment (ASD individuals; [5]) | CARS-2 Adaptation to change, After treatment (ASD individuals; [7]) | CARS-2 Body use, After treatment (ASD individuals; [7]) | CARS-2 Emotional response, After treatment (ASD individuals; [7]) | CARS-2 Imitation, After treatment (ASD individuals; [7]) | CARS-2 Level and consistency of intellectual response, After treatment (ASD individuals; [7]) | CARS-2 Object use, After treatment (ASD individuals; [7]) | CARS-2 Visual response, After treatment (ASD individuals; [7]) | CARS-2 Non-verbal communication, After treatment (ASD individuals; [8]) | CARS-2 Relationship to others, After treatment (ASD individuals; [8]) | CARS-2 Verbal communication, After treatment (ASD individuals; [8]) | CARS-2 Non-verbal communication, After treatment (ASD individuals; [13]) | CARS-2 Relationship to others, After treatment (ASD individuals; [13]) | CARS-2 Visual response, After treatment (ASD individuals; [13]) | CARS-2 General impressions, After treatment (ASD individuals; [14]) | CARS-2 Verbal communication, After treatment (ASD individuals; [14])
no longer ASD: diagnosis after ET treatment (ASD individuals; Example 3, child, ET 2 mg/kg bw per day, three months)
26.62: average of total CARS-2 score after treatment (ASD individuals; examples 1-4, four individuals, decreased from 30.75, T=4.37, P=0.022 by paired student t-test)
19: CARS-2 Total scores, After treatment (ASD individuals; Example 3, child (ASD, Asperger's Syndrome), ET 2 mg/kg bw per day, three months, before treatment 20.5)
31.5: CARS-2 Total scores, After treatment (ASD individuals; Example 4, person, ET 1 mg/kg bw per day, three months, before treatment 37.5)
3: CARS-2 Activity level, After treatment (ASD individuals; [8]) | CARS-2 Activity level, After treatment (ASD individuals; [11]) | CARS-2 Imitation, After treatment (ASD individuals; [14]) | CARS-2 Object use, After treatment (ASD individuals; [14]) | CARS-2 Listening response, After treatment (ASD individuals; Example 4, person, ET 1 mg/kg bw per day, three months, before treatment 3.5) | CARS-2 Level and consistency of intellectual response, After treatment (ASD individuals; [15])
4: CARS-2 Activity level, After treatment (ASD individuals; [15])
2.5: CARS-2 Visual response, After treatment (ASD individuals; [4]) | CARS-2 General impressions, After treatment (ASD individuals; [5]) | CARS-2 Imitation, After treatment (ASD individuals; [11]) | CARS-2 Taste-smell-touch responses, After treatment (ASD individuals; [14])
27.5: CARS-2 Total scores, After treatment (ASD individuals; Example 2, child, ET 2 mg/kg bw per day, three months, before treatment 32)
